Test results: ChEMBL document CHEMBL1134764, “Inhibition of RANTES/CCR1-mediated chemotaxis by cosalane and related compounds” (Bioorg Med Chem Lett, 2001); call rule not given here

Assays:
Format in all cases: functional
[1] = Compound was evaluated for the inhibition of RANTES-induced migration of human monocytes
[2] = Compound was evaluated for the inhibition of RANTES-induced migration of human monocytes; NA: not active
[3] = target: T1, C-C chemokine receptor type 1 (Homo sapiens, UniProt P32246); experiment: Compound was evaluated for the inhibition of RANTES-induced migration of human embryonic kidney (CCR1/HEK) cell transfectants; NA: not active
T1 sequence (P32246 whole entry): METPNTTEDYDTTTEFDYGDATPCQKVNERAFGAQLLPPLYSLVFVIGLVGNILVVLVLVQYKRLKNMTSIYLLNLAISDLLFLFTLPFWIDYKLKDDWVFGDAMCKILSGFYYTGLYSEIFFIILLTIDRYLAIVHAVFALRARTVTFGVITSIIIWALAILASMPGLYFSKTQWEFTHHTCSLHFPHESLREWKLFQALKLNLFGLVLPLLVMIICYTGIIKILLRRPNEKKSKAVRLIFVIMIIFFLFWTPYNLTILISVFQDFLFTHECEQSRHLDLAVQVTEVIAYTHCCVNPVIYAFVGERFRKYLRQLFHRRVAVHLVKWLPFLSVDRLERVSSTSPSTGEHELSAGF

| IC50 [2] | SMILES | IC50 [1] [nM] | IC50 [3] |
| --- | --- | --- | --- |
| – | CC(C)CCCC(C)[C@H]1CC[C@H]2[C@@H]3CCC4C[C@@H](CCC=C(c5cc(Cl)c(OCc6cccc(B(O)O)c6)c(C(=O)O)c5)c5cc(Cl)c(OCc6cccc(B(O)O)c6)c(C(=O)O)c5)CC[C@]4(C)[C@H]3CC[C@]12C (stereo partly specified) | 2200 | – |
| Not Active | CC(C)CCCC(C)[C@H]1CC[C@H]2[C@@H]3CCC4C[C@@H](CCC=C(c5cc(Cl)c(O)c(C(=O)N[C@@H](CC(=O)O)C(=O)O)c5)c5cc(Cl)c(O)c(C(=O)N[C@@H](CC(=O)O)C(=O)O)c5)CC[C@]4(C)[C@H]3CC[C@]12C (stereo partly specified) | – | – |
| – | CC(C)CCCC(C)[C@H]1CC[C@H]2[C@@H]3CCC4C[C@@H](CCC=C(c5cc(Cl)c(OCc6ccc(-c7cccc(C(=O)O)c7)cc6)c(C(=O)O)c5)c5cc(Cl)c(OCc6ccc(-c7cccc(C(=O)O)c7)cc6)c(C(=O)O)c5)CC[C@]4(C)[C@H]3CC[C@]12C (stereo partly specified) | 3000 | – |
| Not Active | COc1c(COc2c(Cl)cc(C(=CCC[C@H]3CC[C@@]4(C)C(CC[C@H]5[C@@H]6CC[C@H](C(C)CCCC(C)C)[C@@]6(C)CC[C@@H]54)C3)c3cc(Cl)c(OCc4cccc(C(=O)O)c4OC)c(C(=O)[O-])c3)cc2C(=O)[O-])cccc1C(=O)O.[Na+].[Na+] (stereo partly specified) | – | – |
| Not Active | CC(C)CCCC(C)[C@H]1CC[C@H]2[C@@H]3CCC4C[C@@H](CCC=C(c5cc(Cl)c(OCc6ccccc6B([O-])O)c(C(=O)[O-])c5)c5cc(Cl)c(OCc6ccccc6B([O-])O)c(C(=O)[O-])c5)CC[C@]4(C)[C@H]3CC[C@]12C.[Na+].[Na+].[Na+].[Na+] (stereo partly specified) | – | – |
| Not Active | CC(C)CCCC(C)[C@H]1CC[C@H]2[C@@H]3CCC4C[C@@H](CCC=C(c5cc(Cl)c(O)c(C(=O)N[C@@H](Cc6ccccc6)C(=O)O)c5)c5cc(Cl)c(O)c(C(=O)N[C@@H](Cc6ccccc6)C(=O)O)c5)CC[C@]4(C)[C@H]3CC[C@]12C (stereo partly specified) | – | – |
| – | CSCC[C@H](NC(=O)c1cc(C(=CCC[C@H]2CC[C@@]3(C)C(CC[C@H]4[C@@H]5CC[C@H](C(C)CCCC(C)C)[C@@]5(C)CC[C@@H]43)C2)c2cc(Cl)c(O)c(C(=O)N[C@@H](CCSC)C(=O)O)c2)cc(Cl)c1O)C(=O)O (stereo partly specified) | 820 | – |
| – | CC(C)CCCC(C)[C@H]1CC[C@H]2[C@@H]3CCC4C[C@@H](CCC=C(c5cc(Cl)c(OCc6cccc(C(=O)O)c6)c(C(=O)O)c5)c5cc(Cl)c(OCc6cccc(C(=O)O)c6)c(C(=O)O)c5)CC[C@]4(C)[C@H]3CC[C@]12C (stereo partly specified) | 10000 | – |
| – | CC(C)CCCC(C)[C@H]1CC[C@H]2[C@@H]3CCC4C[C@@H](CCC=C(c5cc(Cl)c(OCc6ccccc6C(=O)O)c(C(=O)O)c5)c5cc(Cl)c(OCc6ccccc6C(=O)O)c(C(=O)O)c5)CC[C@]4(C)[C@H]3CC[C@]12C (stereo partly specified) | 3900 | – |
| – | CC(C)CCCC(C)[C@H]1CC[C@H]2[C@@H]3CCC4C[C@@H](CCC=C(c5cc(Cl)c(O)c(C(=O)O)c5)c5cc(Cl)c(O)c(C(=O)O)c5)CC[C@]4(C)[C@H]3CC[C@]12C (stereo partly specified) | 760 | – |
| Not Active | CC(C)CCCC(C)[C@H]1CC[C@H]2[C@@H]3CCC4C[C@@H](CCC=C(c5cc(Cl)c(OCc6ccc(B([O-])O)cc6)c(C(=O)[O-])c5)c5cc(Cl)c(OCc6ccc(B([O-])O)cc6)c(C(=O)[O-])c5)CC[C@]4(C)[C@H]3CC[C@]12C.[Na+].[Na+].[Na+].[Na+] (stereo partly specified) | – | – |
| Not Active | CC(C)CCCC(C)[C@H]1CC[C@H]2[C@@H]3CCC4C[C@@H](CCC=C(c5cc(Cl)c(O)c(C(=O)N[C@@H](CCC(=O)O)C(=O)O)c5)c5cc(Cl)c(O)c(C(=O)N[C@@H](CCC(=O)O)C(=O)O)c5)CC[C@]4(C)[C@H]3CC[C@]12C (stereo partly specified) | – | – |
| – | CC(C)CCCC(C)[C@H]1CC[C@H]2[C@@H]3CCC4C[C@@H](CCC=C(c5cc(Cl)c(OCc6cccc([N+](=O)[O-])c6)c(C(=O)O)c5)c5cc(Cl)c(OCc6cccc([N+](=O)[O-])c6)c(C(=O)O)c5)CC[C@]4(C)[C@H]3CC[C@]12C (stereo partly specified) | 3500 | – |

| SMILES | IC50 [2] | IC50 [1] [nM] | IC50 [3] |
| --- | --- | --- | --- |
| CC(C)CCCC(C)[C@H]1CC[C@H]2[C@@H]3CCC4C[C@@H](CCC=C(c5cc(Cl)c(OCc6ccc(C(=O)O)cc6)c(C(=O)[O-])c5)c5cc(Cl)c(OCc6ccc(C(=O)O)cc6)c(C(=O)[O-])c5)CC[C@]4(C)[C@H]3CC[C@]12C.[Na+].[Na+] (stereo partly specified) | Not Active | – | – |
| CC(C)CCCC(C)[C@H]1CC[C@H]2[C@@H]3CCC4C[C@@H](CCC=C(c5cc(Cl)c(OCc6ccc(C(=O)[O-])cc6)c(C(=O)[O-])c5)c5cc(Cl)c(OCc6ccc(C(=O)[O-])cc6)c(C(=O)[O-])c5)CC[C@]4(C)[C@H]3CC[C@]12C.[Na+].[Na+].[Na+].[Na+] (stereo partly specified) | Not Active | – | Not Active |
